Results: patent US5612341A, “Brominated hexahydroxybiphenyl derivatives” (Biotech Research Laboratories, priority 1995, dated 1997)
Converted amounts (≈) assume the structure as drawn. Where a name gives a salt, the structure may show the parent alone. Read-outs that look alike come from different tables or passages of the source.

Assays:
Assay type in all cases: cell-based
[1] = tested on: chronically HIV-1 infected promonocytic cell line, U1; assay: Virus expression in chronically HIV-1 infected promonocytic U1 cells (p24 ELISA)
Method: Therefore, compounds 4 and 5 were separately added for 72 hours to the chronically HIV-1 infected T cell line, ACH-2, and to the chronically HIV-1 infected promonocytic cell line, U1.
HIV-1 chronically infected T cell line, ACH-2, ^15 and HIV-1 chronically infected promonocytic cell line, U1 ^16 were continuously maintained in RPMI1640 with 10% fetal calf serum (FCS). For experiments, the cell lines were only used in log-phase of growth. Cells (1×10^6 cells/well) and either various concentrations of 4,5, AZT or media alone were added to 24-well plates in the presence or absence of PMA (10^-8 M). After 72 hours at 37° C. and 5% CO2, an aliquot of the cell-free supernatants was collected and analyzed for p24 antigen by ELISA.

HIV-1 (IIIB isolate) = assay: microbe, parasite or virus in culture; settings: for Therapeutic Index: 5760 min; for EC50: acutely infected H9 lymphocytes; for anti-HIV activity: result in words
Method: (§1) The H9 T cell line was maintained in continuous culture with complete medium (RPMI and 10% fetal calf serum) at 5% CO2 and 37° C. and was used in experiments only when in log phase of growth. The cells were incubated with HIV-1 (IIIB isolate, TCID50 10^4 IU/mL, at a multiplicity of infection of 0.1-0.01 IU/cell) for 1 hour at 37° C. and 5% CO2. The cells then were washed thoroughly to remove unabsorbed virions and resuspended at 4×10^5 cells/mL in complete medium. Aliquots (1 mL) were placed in wells of 24-well culture plates containing an equal volume of test compound (diluted in the culture medium). After a four day incubation at 37° C., cell density of uninfected cultures was determined by counting cells in a Coulter counter to assess toxicity of the test compound. A p24 antigen ELISA assay was used to determine the level of virus released in the medium of the HIV-infected cultures. The p24 antigen assay uses an HIV-1 anti-p24 specific monoclonal antibody as the capture antibody coated on 96 well plates. Following a sample incubation period, rabbit serum containing antibodies for HIV-1 p24 is used to tag any p24 "captured" onto the microtiter well surface. […] The cut-off for the p24 ELISA assay is 12.5 pg/mL. P24 in the culture medium was quantitated against a standard curve containing known amounts of p24. The effective (EC50) and inhibitory concentrations (for anti-HIV activity and cytotoxicity, respectively) were determined.

H9 T cell line = assay: Toxicity to uninfected H9 cells (cell count)
Method: as §1

[2] = Table I, cytotoxicity, uninfected H9 cells
[3] = Homo sapiens, H9, Table I, cytotoxicity, uninfected H9 cells, read-out: IC50
[4] = Human immunodeficiency virus 1, IIIB, Lymphocyte, Table I, read-out: EC50
[5] = T-cell, Table IA, concentration that causes a 50% reduction in total cell number, read-out: IC50
[6] = Human immunodeficiency virus 1, IIIB, Lymphocyte, Table IA, read-out: EC50

| SMILES | Therapeutic Index (HIV-1 (IIIB isolate); Table I, IC50/EC50) | anti-HIV activity (HIV-1 (IIIB isolate)) | IC50 (H9 T cell line; [3]) | EC50 (HIV-1 (IIIB isolate); [4]) | IC50 (H9 T cell line; [5]) | other results |
| --- | --- | --- | --- | --- | --- | --- |
| Cc1cn([C@H]2C[C@H](N=[N+]=[N-])[C@@H](CO)O2)c(=O)[nH]c1=O [AZT, azidothymidine, reference compound] |  |  |  |  |  | p24 ([1]; +Media, 0.1 μg/mL): 18 pg/mL; p24 ([1]; +Media, 1 μg/mL): 12 pg/mL; p24 ([1]; +Media, 10 μg/mL): 13 pg/mL; p24 ([1]; +Media, 100 μg/mL): 22 pg/mL; p24 ([1]; +PMA, 0.1 μg/mL): 8,070 pg/mL; p24 ([1]; +PMA, 1 μg/mL): 8,218 pg/mL; p24 ([1]; +PMA, 10 μg/mL): 9,299 pg/mL; p24 ([1]; +PMA, 100 μg/mL): 9,338 pg/mL |
| COc1c(Br)c(C(=O)O)c(-c2c3c(c(OC)c(Br)c2C(=O)O)OCO3)c2c1OCO2 [Compound 6, 3,3'-Dibromo-4,4'-dimethoxy-5,6,5'6'-bimethylenedioxy-2,2'-dicarboxy biphenyl] | 1 | decrease in the anti-HIV activity |  |  |  | EC50 (HIV-1 (IIIB isolate); Table I): > 100 µg/mL; IC50 (H9 T cell line; [2]): > 100 µg/mL |
| COc1c(Br)c(C(=O)O)c(-c2c3c(c(OC)c(Br)c2C(=O)O)OCO3)c2c1OCO2 [Compound 7, 3,3'-Dibromo-4,4'-dimethoxy-5,6,5'6'-bimethylenedioxy-2,2'-dicarboxy biphenyl disodium salt] |  | decrease in the anti-HIV activity |  |  |  | Therapeutic Index (HIV-1 (IIIB isolate); Table I, IC50/EC50, disodium salt): 1; EC50 (HIV-1 (IIIB isolate); Table I, disodium salt): > 100 µg/mL; IC50 (H9 T cell line; Table I, cytotoxicity, uninfected H9 cells, disodium salt): > 100 µg/mL |
| COc1c2c(c3c(c1Br)c(=O)oc(=O)c1c(Br)c(OC)c4c(c13)OCO4)OCO2 [Compound 8, 3,3'-Dibromo-4,4'-dimethoxy-5,6,5'6'-bimethylenedioxy biphenyl 2,2'-dicarboxylic anhydride] |  |  | > 100 µg/mL |  |  |  |
| CCOC(=O)c1c(Br)c(OC)c2c(c1-c1c3c(c(OC)c(Br)c1C(=O)O)OCO3)OCO2 [Compound 9, 3,3'-Dibromo-4,4'-dimethoxy-5,6,5'6'-bimethylenedioxy-2-ethoxycarbonyl-2'-carboxy biphenyl] | > 1.7 | decrease in the anti-HIV activity | > 100 µg/mL | 60 µg/mL (≈ 104 µM) |  |  |
| CCOC(=O)c1c(Br)c(OC)c2c(c1-c1c3c(c(OC)c(Br)c1C(=O)O)OCO3)OCO2 [Compound 10, 3,3'-Dibromo-4,4'-dimethoxy-5,6,5'6'-bimethylenedioxy-2-ethoxycarbonyl-2'-carboxy biphenyl monosodium salt] |  |  |  |  |  | IC50 (H9 T cell line; [2]): > 100 µg/mL |
| COc1c(Br)c(C(=O)O)c(-c2c3c(c(OC)c(Br)c2C(=O)OCC[N+](C)(C)C)OCO3)c2c1OCO2 [Compound 11, 3,3'-Dibromo-4,4'-dimethoxy-5,6,5'6'-bimethylenedioxy-2-carboxy-2'-(β-N,N,N-trimethylamino)ethoxycarbonyl biphenyl chloride] | 1 | decrease in the anti-HIV activity | > 100 µg/mL | > 100 µg/mL |  |  |
| COc1c(Br)c(C(=O)O)c(-c2c3c(c(OC)c(Br)c2C(=O)NCCN2CCNCC2)OCO3)c2c1OCO2 [Compound 12, 3,3'-Dibromo-4,4'-dimethoxy-5,6,5'6'-bimethylenedioxy-2-carboxy-2'-(β-N-piperazine)ethylcarbonyl biphenyl] | > 3.3 | decrease in the anti-HIV activity | > 100 µg/mL | 30 µg/mL (≈ 45.5 µM) |  |  |
| COc1c(Br)c(C(=O)O)c(-c2c3c(c(OC)c(Br)c2C(=O)NCCN2CCCC2)OCO3)c2c1OCO2 [Compound 13, 3,3'-Dibromo-4,4'-dimethoxy-5,6,5'6'-bimethylenedioxy-2-carboxy-2'-(β-N-pyrrolidinyl)ethylcarbonyl biphenyl hydrobromide] | 1 | decrease in the anti-HIV activity | > 100 µg/mL | > 100 µg/mL |  |  |
| COc1c(Br)c(C(=O)O)c(-c2c3c(c(OC)c(Br)c2C(=O)O)OCO3)c2c1OCO2 [Compound 14, 3,3'-Dibromo-4,4'-dimethoxy-5,6,5',6'-bimethylenedioxy-2,2'-dicarboxy biphenyl di-1-(2-hydroxyethyl)pyrrolidinium salts] |  |  |  |  |  | EC50 (HIV-1 (IIIB isolate); Table I): 17 µg/mL |
| CCCCCCOC(=O)c1c(Br)c(OC)c2c(c1-c1c3c(c(OC)c(Br)c1C(=O)OCCCCCC)OCO3)OCO2 [Compound 15, 3,3'-Dibromo-4,4'-dimethoxy-5,6,5'6'-bimethylenedioxy-2,2'-dihexanoxycarbonyl biphenyl] | > 50 |  | > 100 µg/mL | 2 µg/mL (≈ 2.79 µM) |  |  |
| COC(=O)c1cc(OCc2ccccc2)c(OCc2ccccc2)c(OC)c1-c1c(OC)c(OCc2ccccc2)c(OCc2ccccc2)c(Br)c1C(=O)OC [Compound 16, 2,2'-Dimethoxycarbonyl-3-bromo-4,4',5,5'-tetrakis(benxyloxy)-6,6'-dimethoxybiphenyl] | 1 | no anti-HIV activity | > 100 µg/mL | > 100 µg/mL |  |  |
| COC(=O)c1c(Br)c(OCc2ccccc2)c(OCc2ccccc2)c(OC)c1-c1c(OC)c(OCc2ccccc2)c(OCc2ccccc2)c(Br)c1C(=O)OC [Compound 17, 2,2'-Dimethoxycarbonyl-3,3'-dibromo-4,4'5,5'-tetrakis(benzyloxy)-6,6'-dimethoxy biphenyl] | 1 | no anti-HIV activity | > 100 µg/mL | > 100 µg/mL |  |  |
| COc1c(OCc2ccccc2)c(OCc2ccccc2)cc(CO)c1-c1c(CO)c(Br)c(OCc2ccccc2)c(OCc2ccccc2)c1OC [Compound 18, 2,2'-Dihydroxymethyl-3-bromo-4,4'5,5'-tetrakis(benzyloxy)-6,6'-dimethoxy biphenyl] | > 1 | no anti-HIV activity | > 100 µg/mL | 100 µg/mL (≈ 129 µM) |  |  |
| COc1c(OCc2ccccc2)c(OCc2ccccc2)c(Br)c(CO)c1-c1c(CO)c(Br)c(OCc2ccccc2)c(OCc2ccccc2)c1OC [Compound 19, 2,2'-Dihydroxymethyl-3,3'-dibromo-4,4'5,5'-tetrakis(benzyloxy)-6,6'-dimethoxy diphenyl] | 1 | no anti-HIV activity | > 100 µg/mL | > 100 µg/mL |  |  |
| COC(=O)c1c2c(c(OC)c(Br)c1-c1c(Br)c(OC)c3c(c1C(=O)OC)OCO3)OCO2 [Compound 110, 6,6'-Dibromo-5,5'-dimethoxy-3,4,3'4'-bimethylenedioxy-2,2'-dimethoxycarbonyl biphenyl] |  |  |  |  | 45 µg/mL (≈ 78.1 µM) | EC50 (HIV-1 (IIIB isolate); Table IA): no inhibition |
| COC(=O)c1cc2c(c(OC)c1-c1c(C(=O)OC)cc3c(c1OC)OCO3)OCO2 [Compound 114, 6,6'-dimethoxy-4,5,4'5'-bimethylenedioxy-2,2'-dimethoxycarbonyl biphenyl] |  |  |  |  | > 100 µg/mL | EC50 (HIV-1 (IIIB isolate); [6]): 65 µg/mL (≈ 155 µM); Therapeutic Index (HIV-1 (IIIB isolate); Table IA, ratio IC50/EC50): > 1.2 |
| COC(=O)c1cc2c(c(OC)c1-c1c(C(=O)OC)cc(OC)c3c1OCO3)OCO2 [Compound 115, 4,6'-dimethoxy-5,6,4'5'-binethylenedioxy,2,2'-dimethoxycarbonyl biphenyl] |  |  |  |  | > 100 µg/mL | EC50 (HIV-1 (IIIB isolate); [6]): 7.5 µg/mL (≈ 17.9 µM); Therapeutic Index (HIV-1 (IIIB isolate); Table IA, ratio IC50/EC50): > 13 |
| COC(=O)c1c(-c2cc(OC)c3c(c2C(=O)OC)OCO3)cc(OC)c2c1OCO2 [Compound 116, 5,5'-Dimethoxy-3,4,3 '4'-bismethylenedioxy-2,2'-dimethoxycarbonyl biphenyl] |  |  |  |  | > 100 µg/mL | EC50 (HIV-1 (IIIB isolate); [6]): 70 µg/mL (≈ 167 µM); Therapeutic Index (HIV-1 (IIIB isolate); Table IA, ratio IC50/EC50): > 1.4 |
| COC(=O)c1cc(-c2cc(C(=O)OC)c3c(c2OC)OCO3)c(OC)c2c1OCO2 [Compound 117, 2,2'-Dimethoxy-3,4,3'4'-bismethylenedioxy-5,5'-dimethoxycarbonyl biphenyl] |  |  |  |  | 1.8 µg/mL (≈ 4.3 µM) | EC50 (HIV-1 (IIIB isolate); Table IA): no inhibition |
| COC(=O)c1c(Br)c2c(c(OC)c1-c1c(OC)c3c(c(Br)c1C(=O)OC)OCO3)OCO2 [Compound 118, 3,3'-Dibromo-6,6'-dimethoxy-4,5,4,5'-bimethylenedioxy-2,2'-dimethoxycarbonyl biphenyl] |  |  |  |  | > 100 µg/mL | EC50 (HIV-1 (IIIB isolate); [6]): 90 µg/mL (≈ 156 µM); Therapeutic Index (HIV-1 (IIIB isolate); Table IA, ratio IC50/EC50): > 1.1 |
| COC(=O)c1c(Br)c2c(c(OC)c1-c1c3c(c(OC)c(Br)c1C(=O)OC)OCO3)OCO2 [Compound 119, 3,3'-Dibromo-4,6'-dimethoxy-5,6,4'5'-bimethylenedioxy-2,2'-dimethoxycarbonyl biphenyl] |  |  |  |  | > 100 µg/mL | EC50 (HIV-1 (IIIB isolate); [6]): 2.1 µg/mL (≈ 3.64 µM); Therapeutic Index (HIV-1 (IIIB isolate); Table IA, ratio IC50/EC50): > 48 |
